For data set [1], the system named is human cytomegalovirus (HCMV). Nature of the data set: HCMV plaque reduction assay. In kind it is cell-based, HCMV Towne strain in HFF cells. To be noted: for IC50: read-out: 50% Inhibitory Concentration, HCMV Activity. On the procedure: (§1) Virological procedures. The Towne strain, plaque-purified isolate Po, of HCMV was kindly provided by Dr. Mark Stinski, University of Iowa. The KOS strain of HSV-1 was used in most experiments and was provided by Dr. Sandra K. Weller, University of Connecticut. Stock HCMV was prepared by infecting HFF cells at a multiplicity of infection (m.o.i.) of <0.01 plaque-forming units (p.f.u.) per cell as detailed previously (Turk, et al., Agents Chemother. 1987, 31, 544-550, herein incorporated by reference). High titer HSV-1 stocks were prepared by infecting KB cells at an m.o.i. of <0.1 also as detailed previously (see Turk et al.). Virus titers were determined using monolayer cultures of HFF cells for HCMV and monolayer cultures of BSC-1 cells for HSV-1 as described earlier (Prichard, et al., J. Virol. Methods 1990, 28, 101-106, herein incorporated by reference). Briefly, HFF or BSC-1 cells were planted as described above in 96-well cluster dishes and incubated overnight at 37° C. The next day cultures were inoculated with HCMV or HSV-1 and serially diluted 1:3 across the remaining eleven columns of the 96-well plate. After virus adsorption the inoculum was replaced with fresh medium and cultures were incubated for seven days for HCMV, two or three days for HSV-1. Plaques were enumerated under 20-fold magnification in wells having the dilution which gave 5 to 20 plaques per well. Virus titers were calculated according to the following formula: Titer (p.f.u./mL)=number of plaques×5×3^n; where n represents the n^th dilution of the virus used to infect the well in which plaques were enumerated.
HCMV plaque reduction assay. HFF cells in 24-well cluster dishes were infected with approximately 100 p.f.u. of HCMV per cm^2 cell sheet using the procedures detailed above. Following virus adsorption, the compounds, prepared as 10 mg/mL stock solutions in DMSO were diluted with growth medium and were added to duplicate wells in four to eight selected concentrations. After incubation at 37° C. for 7-10 days, cell sheets were fixed, stained with crystal violet and microscopic plaques enumerated as described above. Drug effects were calculated as a percentage of reduction in number of plaques in the presence of each drug concentration compared to the number observed in the absence of drug.
(§2) Data Analysis. Dose response relationships were used to quantitate drug effects by linear regression of the percent inhibition of parameters derived in the preceding assays against log10 drug concentrations. Fifty percent inhibitory concentrations (IC50's) were calculated from the linear portions of the regression lines. Samples containing positive controls (acyclovir for HSV-1, GCV for HCMV, and 2-acetylpyridine thiosemicarbazone for cytotoxicity) were used in all assays.
On the technique in general: Plaques are areas of infected cells; plaque reduction assays count them against a control.

Data set [2] can be described thus: Cytotoxicity in growing KB cells, crystal violet staining. The format is cell-based. To be noted: human, read-out: 50% Inhibitory Concentration, KB Cytotoxicity. On the procedure: (§3) Cytotoxicity assays. Two different assays were used for routine cytotoxicity testing. (i) Cytotoxicity produced in stationary HFF cells was determined by microscopic inspection of cells not affected by the virus used in plaque assays (Turk, et al., Agents Chemother. 1987, 31, 544-550, herein incorporated by reference). (ii) The effect of compounds during two population doublings of KB cells was determined by crystal violet staining and spectrophotometric quantitation of dye eluted from stained cells as described earlier (Prichard, et al., Antiviral Res. 1991, 35, 1060-1065, herein incorporated by reference). Briefly, 96-well cluster dishes were planted with KB cells at 3000-5000 cells per well. After overnight incubation at 37° C., test compound was added in quadruplicate at six to eight concentrations. Plates were incubated at 37° C. for 48 h in a CO2 incubator, rinsed, fixed with 95% ethanol, and stained with 0.1% crystal violet. Acidified ethanol was added and plates read at 570 nm in a spectrophotometer designed to read 96-well ELISA assay plates.
as §2

Data set [3] is described as follows: Cytotoxicity in stationary HFF cells, microscopic inspection. The format is cell-based. Conditions: human, read-out: 50% Inhibitory Concentration, HFF Cytotoxicity. On the procedure:
as §3, §2

Data set [4] concerns herpes simplex virus type 1 (HSV-1). Nature of the data set: HSV-1 ELISA. In kind it is cell-based, HSV-1 KOS strain in BSC-1 cells. The method, then:
as §1
HSV-1 ELISA. An ELISA was employed (Prichard, et al., Antiviral Res. 1990, 14, 181-206, herein incorporated by reference) to detect HSV-1. Ninety-six-well cluster dishes were planted with 10,000 BSC-1 cells per well in 200 μL per well of MEM(E) plus 10% calf serum. After overnight incubation at 37° C., selected drug concentrations in quadruplicate and HSV-1 at a concentration of 100 p.f.u./well were added. Following a 3-day incubation at 37° C., medium was removed, plates were blocked, rinsed, and horse radish peroxidase conjugated rabbit anti-HSV-1 antibody was added. Following removal of the antibody containing solution, plates were rinsed, and then developed by adding 150 μl per well of a solution of tetramethylbenzidine as substrate. The reaction was stopped with H2SO4 and absorbance was read at 450 and 570 nm. Drug effects were calculated as a percentage of the reduction in absorbance in the presence of each drug concentration compared to absorbance obtained with virus in the absence of drug.
as §2
(In an ELISA, binding on a coated surface is turned into a signal by an enzyme label.)

Data set [5] deals with human cytomegalovirus (HCMV). Nature of the data set: Literature activity against HCMV replication in vitro. In kind it is cell-based.
For a further data set, the system named is uninfected host cells. Conditions: cited from earlier work.
Data set [6] has as its system human cytomegalovirus (HCMV). To be noted: cited from earlier work; for activity against HCMV: literature reports.
The conditions of data set [7]: Good et al.; cited from earlier work.
Where [8] appears, read: Human betaherpesvirus 5, plaque reduction in HFF cells.
Where [9] appears, read: stationary human foreskin fibroblasts (HFF cells).
Where [10] appears, read: Human alphaherpesvirus 1, ELISA in BSC-1 cells, read-out: 50% Inhibitory Concentration, HSV-1 Activity.
Where [11] appears, read: Human alphaherpesvirus 1, BSC-1, read-out: 50% Inhibitory Concentration, HSV-1 Activity.

Read-outs that look alike come from different tables or passages of the source.

Turning to `CN(C)c1c(C#N)c2cc(Cl)c(Cl)cc2n1[C@@H]1O[C@H](CO)[C@@H](O)[C@H]1O` [Compound 4.14, 5,6-Dichloro-2-dimethylamino-3-cyano-1-(β-D-ribofuranosyl)indole], the IC50 in data set [1] (setting [8]) is 17 µM; in data set [3] (setting [9]), 100 µM; in data set [4] (setting [10]), over 100 µM. Further, the IC50 at 48 h in data set [2] stood at 90 µM.

For the compound `CC(=O)OC[C@H]1O[C@@H](n2c(Cl)c(C(C)=O)c3cc(Cl)c(Cl)cc32)[C@H](O)[C@@H]1O` [Compound 4.43, 2,5,6-Trichloro-3-acetyl-1-(5-O-acetyl-β-D-ribofuranosyl)indole], the “antiviral activity” value in data set [1] (virus not specified, HCMV and HSV-1 were used) is reported as “comparable to the fully deprotected analog”.

For orientation: CC50 means the concentration that lowers cell viability or growth by half. Regarding `O=Cc1c(Cl)n([C@@H]2O[C@H](CO)[C@@H](O)[C@H]2O)c2cc(Cl)c(Cl)cc12` [Compound 4.3, 2,5,6-trichloro-3-formyl-1-(β-D-ribofuranosyl)indole], the “selectivity index (calculated by dividing the CC50 by the IC50)” value in data set [5] is listed as 195. The IC50 in data set [1] (Human betaherpesvirus 5, HFF) was 0.2 µM; in data set [6] (Chen thesis, read-out: IC50 against HCMV) it was 0.23 µM; in data set [3], 45 µM; in data set [4] (setting [11]), 40 µM. For the same compound, the CC50 with uninfected host cells (Chen thesis, read-out: CC50 against uninfected host cells) was 45 µM. In data set [6], the “activity against HCMV” value is given as “even more active than TCRB”. In addition, the IC50 at 48 h in data set [2] was found to be 45 µM.

With `CC(=O)OC[C@H]1O[C@@H](n2c(Br)c(C=O)c3cc(Cl)c(Cl)cc32)[C@H](O)[C@@H]1O` [Compound 4.136, 5,6-Dichloro-2-bromo-3-formyl-1-(5-O-acetyl-β-D-ribofuranosyl)indole], the IC50 came out at 0.3 µM in data set [1] (Human betaherpesvirus 5, HFF); 32 µM in data set [3]; 15 µM in data set [4] (setting [11]). The IC50 at 48 h in data set [2] turned out to be 40 µM.

As to `COC(=N)c1c(Cl)n([C@@H]2O[C@H](CO)[C@@H](O)[C@H]2O)c2cc(Cl)c(Cl)cc12` [Compound 4.34, Methyl 2,5,6-Trichloro-1-(β-D-ribofuranosyl)indole-3-formimidate], the IC50 in data set [1] (setting [8]) came out at 0.4 µM; in data set [3] (setting [9]), 100 µM; in data set [4] (setting [10]) it was 70 µM. The IC50 at 48 h in data set [2] stood at 90 µM.

With `OC[C@H]1O[C@@H](n2c(Cl)nc3cc(Cl)c(Cl)cc32)[C@H](O)[C@@H]1O` [TCRB, 2,5,6-trichloro-1-(β-D-ribofuranosyl)benzimidazole], the “in vivo stability” value in data set [7] is reported as “in vivo instability”. Moreover, the “activity against HCMV” value in data set [6] is “potent and selective inhibitor”.

For `C[C@H]1O[C@@H](n2c(Cl)c(C=O)c3cc(Cl)c(Cl)cc32)[C@H](O)[C@@H]1O` [Compound 4.97, 2,5,6-Trichloro-3-formyl-1-(5-deoxy-β-D-ribofuranosyl)indole], the IC50 in data set [1] (Human betaherpesvirus 5, HFF) came out at 0.3 µM; in data set [3] it was 32 µM; in data set [4] (setting [11]), 20 µM. Besides, in data set [2], the IC50 at 48 h worked out at 25 µM.

`OC[C@H]1O[C@@H](n2c(Cl)cc3cc(Cl)c(Cl)cc32)[C@H](O)[C@@H]1O` [Compound 4.2, 2,5,6-trichloro-1-(β-D-ribofuranosyl)indole, reference compound]: the “cytotoxicity” value in the data set with uninfected host cells (Chen et al.) was “non-cytotoxic”. Moreover, the “activity against HCMV” value in data set [6] was “inactive”.

For the compound `CC(C)Nc1nc2cc(Cl)c(Cl)cc2n1[C@H]1O[C@@H](CO)[C@H](O)[C@@H]1O` [Compound 1263W94], in data set [6], the “activity against HCMV” value was “very active”.

(Values after patent publication US8202844B2, “Indole antiviral compositions and methods” (The Regents of the University of Michigan, priority 2003, dated 2012).)
